What was measured:
[1] = molecular target: T1, hPTP1B1–285 (Homo sapiens, UniProt P18031); test: PTP1B activity assay, short form hPTP1B1–285 (p‐NPP); format: biochemical; details: ± S.D; p‐NPP substrate, 15 min at 37 °C
T1 construct: hPTP1B1–285 (the short form with an N‐terminal catalytic domain)
T1 sequence (P18031 1-285): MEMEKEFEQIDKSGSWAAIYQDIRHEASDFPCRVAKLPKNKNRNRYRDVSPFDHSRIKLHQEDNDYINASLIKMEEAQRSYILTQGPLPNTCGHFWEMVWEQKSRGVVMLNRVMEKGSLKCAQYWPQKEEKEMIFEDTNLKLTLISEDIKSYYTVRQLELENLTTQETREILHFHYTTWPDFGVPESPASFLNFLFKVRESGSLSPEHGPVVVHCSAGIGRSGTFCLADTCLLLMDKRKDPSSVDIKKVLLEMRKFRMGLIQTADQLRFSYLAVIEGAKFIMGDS
Method: (§1) The inhibitory activity of PTP1B was assessed using two enzyme variants: hPTP1B1–285 (the short form with an N‐terminal catalytic domain) and hPTP1B1–400 (the long form with an intrinsically disordered C‐terminal regulatory domain). […] According to Coronel‐Tovar et al., the disordered region of the C‐terminal domain plays a crucial role in modulating PTP1B enzymatic activity.^[ [30] ^] […] Different concentrations of the compounds were evaluated to determine their IC50 values (Table 1 ).
To do so, these terpenoids were tested against hPTP1B1–285.
(§2) Recombinant human protein tyrosine phosphatase 1B, consisting of 400 and 285 amino acid residues, was used.^[ [35] ^] […] Aliquots of 0–10 µL of the test compounds (triplicate) were taken and incubated for 15 min at 37 °C with 85 µL of Tris buffer solution (50 mM, pH 6.8) containing PTP1B enzyme and 5 µL of p‐nitrophenyl phosphate substrate (p‐NPP, 10 mM). Absorbance was then measured at a wavelength of 405 nm. The inhibitory activity was determined according to Equation (1). (1) % PTP1B=(A405b/A405c)×100 where % PTP1B: Is the percentage of inhibition. A 405c: Is the corrected absorbance of the blank (A 405initial–A 405final). A 405b: Is the corrected absorbance of the compounds (A 405control–A 405compound).

[2] = molecular target: T2, TCPTP (Homo sapiens, UniProt P17706); test: T‐cell protein tyrosine phosphatase (TCPTP) activity assay (p‐NPP); format: biochemical; details: ± S.D; assessed up to 100 μM; read-out: TCPTP IC50
T2 sequence (P17706 1-415): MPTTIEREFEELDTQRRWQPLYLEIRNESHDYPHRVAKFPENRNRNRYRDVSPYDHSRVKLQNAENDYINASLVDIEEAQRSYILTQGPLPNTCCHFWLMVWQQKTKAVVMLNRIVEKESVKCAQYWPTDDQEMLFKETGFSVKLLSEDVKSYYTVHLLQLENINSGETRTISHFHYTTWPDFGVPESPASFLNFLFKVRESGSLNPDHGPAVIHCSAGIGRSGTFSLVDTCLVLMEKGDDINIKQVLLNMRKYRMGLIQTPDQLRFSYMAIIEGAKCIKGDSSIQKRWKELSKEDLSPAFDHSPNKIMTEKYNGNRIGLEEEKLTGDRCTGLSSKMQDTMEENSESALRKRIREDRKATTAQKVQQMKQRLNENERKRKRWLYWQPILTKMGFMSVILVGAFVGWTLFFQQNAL
Method: The effectiveness and safety of protein tyrosine phosphatase (PTP) inhibitors depend on their specificity. PTP1B and TCPTP serve different functions: PTP1B is involved in metabolism and cancer, while TCPTP regulates immune function. Inhibiting TCPTP could impact the immune response, whereas inhibiting PTP1B may benefit metabolic diseases without these side effects.^[ [20] ^, [34] ^, [35] ^] […] These compounds were assessed up to 100 μM (Table 1).
TCPTP enzyme reported by Mendoza et al. was used for this assay. […] Aliquots of 0–10 µL (triplicate) of the newly synthesized compounds, positive control, and solvent were taken. These were incubated with 85 µL of enzyme solution (Tris, 50 mM, pH 6.8, TCPTP) and 5 µL of substrate (p‐NPP, 10 mM) for 15 min at 37 °C.

[3] = molecular target: T3, hPTP1B1–400 (Homo sapiens, UniProt P18031); test: Kinetic studies of PTP1B (hPTP1B1–400);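 also: enzyme kinetics run across a range of substrate and inhibitor levels, control lacking inhibitor, triplicate runs, parameters derived by fitting Michaelis–Menten style equations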
T3 sequence (P18031 1-400): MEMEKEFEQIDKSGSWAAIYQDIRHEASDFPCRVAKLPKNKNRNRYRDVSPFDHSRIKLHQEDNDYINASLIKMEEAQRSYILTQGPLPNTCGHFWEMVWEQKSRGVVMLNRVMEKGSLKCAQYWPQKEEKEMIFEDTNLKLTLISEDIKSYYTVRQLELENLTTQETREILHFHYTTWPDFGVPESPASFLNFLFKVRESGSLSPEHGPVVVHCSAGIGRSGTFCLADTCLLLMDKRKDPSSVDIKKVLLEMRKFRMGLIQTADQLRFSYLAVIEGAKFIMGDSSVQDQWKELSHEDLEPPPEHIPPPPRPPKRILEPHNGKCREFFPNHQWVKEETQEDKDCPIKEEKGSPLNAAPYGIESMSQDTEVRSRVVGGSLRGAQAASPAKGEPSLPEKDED
Method: Kinetic analyses were performed at various substrate and inhibitor concentrations.
The negative control was prepared with the enzyme and substrate in the absence of the inhibitor. Experiments were conducted in triplicate.^[ [30] ^] […] The kinetic parameters of enzyme inhibition, K m and V max, were determined by fitting the data to the Michaelis‐Menten model, Equation (3) (OriginPro 2018 (64‐bit) SR1). (3) y=VmaxX/Km+X´ where V max: is the maximum velocity, X: is the inhibitor concentration, K m: Michaelis constant.
(4) y=Vmax(X)/(Km/1+I/Ki)+X where V max: maximum velocity, X: substrate concentration, I: inhibitor concentration, K m: Michaelis constant, K i : inhibition constant.

[4] = molecular target: T3, hPTP1B1–400; test: PTP1B activity assay, long form hPTP1B1–400 (p‐NPP); format: biochemical; parameters: hPTP1B1–400 (the long form with an intrinsically disordered C‐terminal regulatory domain); details: ± S.D; p‐NPP substrate, 15 min at 37 °C, triplicate
Method: as §1, §2

[5] = ± S.D, hPTP1B1–400 with inhibitor

IC50 [1]: 14.9 ± 0.95 µM
IC50 [2]: > 100 µM
Ki ([3]; K i, ± S.D, hPTP1B1–400, p‐NPP 0.1 to 0.5 mM): 0.071 ± 0.008 µM
Inhibition type ([3]; hPTP1B1–400): uncompetitive inhibition
K m [3, 5]: 520 ± 70 µM
V max [3, 5]: 0.62 ± 0.05 mM/min
IC50 [4]: 2.06 ± 0.08 µM
SMILES: CC1(C(=O)O)CCC2(C)CCC3(C)C(=CC(=O)C4C5(C)Cc6c([nH]c7ccc(C(F)(F)F)cc67)C(C)(C)C5CCC43C)C2C1 (stereo not shown) [Compound 3c]

Source: publication PMC12640663 (Chemmedchem, 2025)
